This is an account of results in PMC6240096, “A hPSC-based platform to discover gene-environment interactions that impact human β-cell and dopamine neuron survival” (Nature Communications, 2018).

pIC50: −log10 of the molar value.

One assay relates to HuC/D+ neurons. The assay can be described thus: Inhibition curve / survival of hESC-derived neurons. It is filed as cell-based, human. Here is the method:
(§1) hESCs-derived INS^+ cells, MSCs[43], neurons, and hepatocytes[44] were derived based on the reported protocols and re-plated on 96-well plates with Accutase digestion. Cardiomyocytes (CMs) were differentiated from H9-MYH6: mCherry reporter line, based on the reported protocol. After overnight incubation, cells were treated with DMSO or different doses of hit compounds for 4 days. After fixation, the cells were stained with markers for each cell type. DAPI was used to stain cell nuclei. Plates were analyzed by ImageXpress^MICRO Automated High-Content Analysis System.
Supplementary Figure 4. Assessment of the toxic effect of propargite on different type […]
(a) Flow cytometry char acterization of CD29+ and CD73+ mesenchymal stem cells (MSCs) derived from H1 hESCs. (b-c) microscope image (b) and flow cytometry (c) characterization of cardiomyocytes expressing MYH6+ derived from a MYH6:mCherry reporter hESC line. (d-e) Immunocytochemistry characterization of MAP2+/TUJ1+ and HuC/D+/MAP2+ neurons (d) and A1AT+/ASGPR1+ hepatocytes (e) derived from H1 hESCs. All the cells were counterstained by DAPI (blue). Scale bars, 100 µm. (f) Inhibition curve of propargite on pancreatic β-like cells, MSCs, cardiomyocytes, neurons, and hepatocytes derived from hESCs, and BJ-fibroblasts (n=3). Values presented as mean±S.D. […]

The test system of a further assay is MIN6 cells. The assay can be described thus: Western blotting of γ-H2A.X and extracellular HMGB1 in MIN6 cells. It is filed as cell-based, mouse. The following applies: time course 1 to 30 h. From the text: To extract intracellular protein, cells were placed on ice, washed twice with ice-cold PBS and lysed immediately with RIPA buffer (Life Technologies, 89900) supplemented with a protease inhibitor cocktail (Life Technologies, 78440). Cell lysates were then sonicated and the soluble fraction was collected after centrifugation. Protein amount was quantified by the BCA protein assay (Life Technologies, 23227). To extract extracellular HMGB1, tissue culture media were collected and concentrated using Afyon SDS-PAGE sample preparation kit (advansta, K-02101-025). 20 μg of total protein for each sample was mixed with loading buffer and incubated for 5 min at 95 °C before being loaded into NuPAGE® Novex® 4–12% […] Protein Gels (Life Technologies, NP0321BOX) for electrophoresis. Separated proteins were transferred to a PVDF membrane (Millipore, IPSN07852) after electrophoresis. The membrane was blocked with 5% non-fat milk in TBST (50 mM Tris–HCl at pH 8.0, 150 mM NaCl, 0.1% Tween 20) followed by overnight incubation with the primary antibody at 4 °C. The following antibodies were used with the dilution ratio noted: rabbit anti-HMGB1 (1:1000, Cell Signaling Technology, #6893), rabbit anti-γ-H2A.X (1:1000, Cell Signaling Technology, #9718), rabbit anti-LC3B (1:1000, Cell Signaling Technology, #3868), mouse anti-GSTT1 (1:1000, GeneTex, GTX109250), rabbit anti-GSTM1 (1:1000, R&D system, MAB6894), mouse anti-GAPDH (1:50000, Abcam, ab8245). A peroxidase conjugated horse anti-mouse IgG secondary antibody (1:20000, Vector Laboratories, PI-2000) or peroxidase conjugated goat anti-Rabbit IgG secondary antibody (1:20000, Vector Laboratories, PI-1000) was used for western blot. ECL signals were developed and detected using the SuperSignal™ West Femto Maximum Sensitivity Substrate (Life Technologies, 34094) and a C-DiGit Chemiluminescent Western Blot Scanner (LI-COR). Uncropped scans of all the blots were shown in Supplementary Fig. 7 in the Supplementary Information.

For a further assay, the system named is INS+ cells. The assay can be described thus: High-content survival / inhibitory curve, hESC-derived INS+ cells. Type of assay: cell-based, human. The following applies: H1 hESC-derived, β-cell differentiation protocol 1, 4 days treatment, n = 8; read-out: IC50 for INS+ cells. Here is the method:
(§2) The screening library ToxCast Phase I was obtained from the US Environmental Protection Agency, which contains approximately 2000 compounds dissolved at 20 mM in DMSO. The H1 hESC-derived population was dissociated with Accutase and re-plated onto laminin V-coated 384-well plates at 5000 cells per well. After 16 h incubation, cells were treated with individual compounds from the ToxCast library with four concentrations, including 20 nM, 200 nM, 2 μM, and 20 μM, for each compound. After 4 days, the cells were fixed with 10% formalin and stained with an INS antibody and DAPI, followed by automatic imaging and analysis by ImageXpress^MICRO Automated High-Content Analysis System (Molecular Devices) to count the numbers of INS^+ and INS^− cells. The survival rate was calculated by dividing the numbers of INS^+ cells in compound treated conditions by the average number of INS^+ cells in DMSO-treated conditions. The compounds that induced more than 60% reduction of the survival rate of INS^+ cells and less than 20% of the INS^− cells were chosen as primary hits. Hit compounds were then selected and validated in three additional independent experiments using the same protocol as the primary screening.
as §1

A further assay relates to GSTT1+/+ INS+ cells. The assay can be described thus: Inhibition curve on INS+ cells derived from GSTT1+/+ H1 hESCs. It is filed as cell-based, human. The following applies: H1 hESC-derived, n = 3; read-out: IC50 of GSTT1+/+-1 INS+ cells. As to the method:
as §1
CRISPR sgRNA sequences were designed using the web resources available at http://www.genome-engineering.org/. The target sequences are listed in Supplementary Table 2. Each target sequence was cloned into the pX330-U6-Chimeric_BB-CBh-hSpCas9 vector (Addgene plasmid #42230) to make the gene targeting constructs. To knockout the target genes, two sgRNAs were validated using the surveyor assay in 293T cells, and we chose 1 sgRNA-construct plasmid for further experiments. After validation, H1 or INS^GFP/W HES3 cells were dissociated using Accutase (STEM CELL) and electroporated (8 × 10^5 cells per sample) with 4 μg sgRNA-construct plasmids using Human Stem Cell Nucleofector^TM solution (Lonza) following manufacturer’s instructions. […] A portion of the cells was analyzed by DNA sequencing. […]

The subject of another assay is INS- cells. The assay can be described thus: High-content survival / inhibitory curve, hESC-derived INS- cells. The following applies: H1 hESC-derived, β-cell differentiation protocol 1, 4 days treatment, n = 8. It is filed as cell-based, human. As to the method: as §2, with “Hit compounds were then selected and validated in three additional independent experiments using the same protocol as the primary screening.” left out
hESCs-derived INS^+ cells, MSCs[43], neurons, and hepatocytes[44] were derived based on the reported protocols and re-plated on 96-well plates with Accutase digestion. […] Plates were analyzed by ImageXpress^MICRO Automated High-Content Analysis System.

Take “2-(4-tert-butylphenoxy)-cyclohexyl prop-2-yne-1-sulfonate [propargite]”: the “susceptibility of HuC/D+ neurons” value with HuC/D+ neurons (1.6 μM propargite) was “highly susceptible”. Moreover, the pIC50 is 5.84 in the assay on HuC/D+ neurons (cell survival rate, 4 days, n=3); 5.96 with INS+ cells; 5.67 in the assay on GSTT1+/+ INS+ cells; 5.01 with INS- cells. In addition, the “time after treatment at which γ-H2A.X was induced” value with MIN6 cells is on record as 12 h. In addition, the “time after treatment of detection of extracellular HMGB1” value with MIN6 cells is 18 h.
